Target: T1, human M1 receptor (Homo sapiens, UniProt P11229)
T1 construct: expressed in transfected cells; host or cells: CHO-K1
T1 sequence (P11229 1-460): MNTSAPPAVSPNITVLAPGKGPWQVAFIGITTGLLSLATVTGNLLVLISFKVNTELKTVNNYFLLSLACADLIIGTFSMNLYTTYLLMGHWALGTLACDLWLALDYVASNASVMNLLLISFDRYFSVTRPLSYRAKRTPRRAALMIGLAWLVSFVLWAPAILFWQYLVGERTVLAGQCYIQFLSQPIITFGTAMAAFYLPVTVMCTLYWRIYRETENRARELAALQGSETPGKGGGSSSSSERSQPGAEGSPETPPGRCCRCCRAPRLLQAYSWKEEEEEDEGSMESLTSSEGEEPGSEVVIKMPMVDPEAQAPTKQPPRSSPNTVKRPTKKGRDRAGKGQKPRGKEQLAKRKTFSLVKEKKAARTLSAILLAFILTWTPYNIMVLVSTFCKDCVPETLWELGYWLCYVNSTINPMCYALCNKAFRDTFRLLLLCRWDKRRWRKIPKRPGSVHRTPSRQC
Assay: Measurement of M1 receptor positive allosteric modulator (M1PAM) activity
Type: cell-based
Details: PAM activity in presence of acetylcholine at EC20 concentration; CHO-K1 cells stably expressing human M1 receptor; IP1 time-resolved fluorescence
Procedure: Measurement of M1 Receptor Positive Allosteric Modulator (M1PAM) Activity
The activity of a test compound in the presence of acetylcholine at an EC20 concentration affording about 20% action of the maximum activity was measured as PAM activity. The method therefor is as follows. To a 384-well white plate (Greiner™) was added 4 μL of the test compound diluted with IP1 Stimulation buffer (CisBio™) containing 0.1% fatty acid-free BSA containing 80 nM acetylcholine. Freeze stock of CHO-K1 cells stably expressing human M1 receptor (hCHRMl) was prepared with IP1 Stimulation buffer (CisBio™) containing 0.1% fatty acid-free BSA, 4 μL thereof was added (10,000 cells/well) and the mixture was cultured in a 5% CO2 incubator at 37° C. for 1 hr. 4 μL of a solution (CisBio™) containing IP1-d2 and Anti-IP1-cryptate Tb conjugate was added the mixture was incubated at room temperature for 1 hr, and the time-resolved fluorescence signal was measured on an Envision plate reader (Perkin Elmer™). The activity (%) of the test compound was calculated by defining the value when acetylcholine was added at the final concentration of 20 μM as 100% and the value when DMSO was added instead of the test compound under acetylcholine-free conditions as 0%, and the EC50 value was calculated as a value of 50% of the concentration dependence curve of the test compound.

Question: `O=C(NC[C@@H]1CCCO1)c1ccc(Cc2cc(C(=O)N[C@H]3CCOC[C@@H]3O)c(F)c3c2OCC3)cc1F` [Example 15, 1,5-anhydro-2,3-dideoxy-3-(((4-fluoro-7-(3-fluoro-4-(((2S)-tetrahydrofuran-2-ylmethyl)carbamoyl)benzyl)-2,3-dihydro-1-benzofuran-5-yl)carbonyl)amino)-L-threo-pentitol] was tested. Which EC50 did it give?
Answer: The EC50 was 4.9 nM.

Question: How did the EC50 turn out when `O=C(N[C@H]1CCOC[C@@H]1O)c1cc(Cc2ccc(-n3cccn3)cc2)c2c(c1F)CCO2` [Example 9, 1,5-anhydro-2,3-dideoxy-3-(((4-fluoro-7-(4-(1H-pyrazol-1-yl)benzyl)-2,3-dihydro-1-benzofuran-5-yl)carbonyl)amino)-L-threo-pentitol] was run?
Answer: The EC50 was 7.6 nM.

Question: How did the EC50 turn out when `CNC(=O)c1ccc(Cc2cc(C(=O)N[C@H]3CCOC[C@@H]3O)c(F)c3c2OCC3)cc1F` [Example 12, 1,5-anhydro-2,3-dideoxy-3-(((4-fluoro-7-(3-fluoro-4-(methylcarbamoyl)benzyl)-2,3-dihydro-1-benzofuran-5-yl)carbonyl)amino)-L-threo-pentitol] was run?
Answer: The EC50 was 11 nM.

Question: For `COc1c(C(=O)N[C@H]2CCOC[C@@H]2O)cc(Cc2ccc(C(=O)NCCCS(C)(=O)=O)c(F)c2)c2c1CCC2` [Example 66, 1,5-anhydro-2,3-dideoxy-3-(((7-(3-fluoro-4-((3-(methylsulfonyl)propyl)carbamoyl)benzyl)-4-methoxy-2,3-dihydro-1H-inden-5-yl)carbonyl)amino)-L-threo-pentitol], which EC50 is on record?
Answer: The EC50 was 12 nM.

Question: Which EC50 does the source give for `COc1c(C(=O)N[C@H]2CCOC[C@@H]2O)cc(Cc2ccc(-c3cn(C)nn3)cc2)c2c1CCC2` [Example 53, 1,5-anhydro-2,3-dideoxy-3-(((4-methoxy-7-(4-(1-methyl-1H-1,2,3-triazol-4-yl)benzyl)-2,3-dihydro-1H-inden-5-yl)carbonyl)amino)-L-threo-pentitol] here?
Answer: The EC50 was 3.2 nM.

Question: With `O=C(N[C@H]1COCC[C@@H]1O)c1cc(Cc2ccc(-n3cccn3)cc2)c2c(c1F)CCO2` [Example 11, 1,5-anhydro-2,4-dideoxy-2-(((4-fluoro-7-(4-(1H-pyrazol-1-yl)benzyl)-2,3-dihydro-1-benzofuran-5-yl)carbonyl)amino)-L-threo-pentitol] as the compound, how does the EC50 read?
Answer: Its EC50 is 96 nM.

Question: For `CNC(=O)c1ccc(Cc2cc(C(=O)N[C@H]3CCOC[C@@H]3O)c(OC)c3c2CCC3)cc1F` [Example 57, 1,5-anhydro-2,3-dideoxy-3-(((7-(3-fluoro-4-(methylcarbamoyl)benzyl)-4-methoxy-2,3-dihydro-1H-inden-5-yl)carbonyl)amino)-L-threo-pentitol], which EC50 is on record?
Answer: The EC50 was 8.9 nM.

Question: `COc1c(C(=O)N[C@H]2CCOC[C@@H]2O)cc(Cc2ccc(C(=O)NC[C@@H]3CCCO3)c(F)c2)c2c1CCO2` [Example 33, 1,5-anhydro-2,3-dideoxy-3-(((7-(3-fluoro-4-(((2S)-tetrahydrofuran-2-ylmethyl)carbamoyl)benzyl)-4-methoxy-2,3-dihydro-1-benzofuran-5-yl)carbonyl)amino)-L-threo-pentitol] was tested. Which EC50 did it give?
Answer: The EC50 was 11 nM.

Question: Which EC50 does the source give for `COc1c(C(=O)N[C@H]2CCOC[C@@H]2O)cc(Cc2ccc(C(=O)NC[C@@H]3CCCO3)c(F)c2)c2c1CCC2` [Example 59, 1,5-anhydro-2,3-dideoxy-3-(((7-(3-fluoro-4-(((2S)-tetrahydrofuran-2-ylmethyl)carbamoyl)benzyl)-4-methoxy-2,3-dihydro-1H-inden-5-yl)carbonyl)amino)-L-threo-pentitol] here?
Answer: Its EC50 is 3.9 nM.

Question: Which EC50 does the source give for `COCCNC(=O)c1ccc(Cc2cc(C(=O)N[C@H]3CCOC[C@@H]3O)c(OC)c3c2OCC3)cc1F` [Example 32, 1,5-anhydro-2,3-dideoxy-3-(((7-(3-fluoro-4-((2-methoxyethyl)carbamoyl)benzyl)-4-methoxy-2,3-dihydro-1-benzofuran-5-yl)carbonyl)amino)-L-threo-pentitol] here?
Answer: The EC50 was 24 nM.

Question: With `COc1c(C(=O)N[C@H]2CCOC[C@@H]2O)cc(Cc2ccc(-c3cnn(C)c3)nc2)c2c1CCC2` [Example 55, 1,5-anhydro-2,3-dideoxy-3-(((4-methoxy-7-((6-(1-methyl-1H-pyrazol-4-yl)pyridin-3-yl)methyl)-2,3-dihydro-1H-inden-5-yl)carbonyl)amino)-L-threo-pentitol] as the compound, how does the EC50 read?
Answer: Its EC50 is 5.5 nM.

Question: Which EC50 does the source give for `O=C(N[C@H]1CCCC[C@@H]1O)c1cc(Cc2ccc(-n3cccn3)cc2)c2c(c1F)CCO2` [Example 10, 4-fluoro-N-((1S,2S)-2-hydroxycyclohexyl)-7-(4-(1H-pyrazol-1-yl)benzyl)-2,3-dihydro-1-benzofuran-5-carboxamide] here?
Answer: Its EC50 is 17 nM.

Question: Which EC50 does the source give for `COc1c(C(=O)N[C@H]2CCOC[C@@H]2O)cc(Cc2ccc(-c3cn(C)nn3)cc2)c2c1CCO2` [Example 18, 1,5-anhydro-2,3-dideoxy-3-(((4-methoxy-7-(4-(1-methyl-1H-1,2,3-triazol-4-yl)benzyl)-2,3-dihydro-1-benzofuran-5-yl)carbonyl)amino)-L-threo-pentitol] here?
Answer: Its EC50 is 6 nM.

Question: How did the EC50 turn out when `Cn1cc(-c2ccc(Cc3cc(C(=O)N[C@H]4CCOC[C@@H]4O)c(F)c4c3OCC4)cc2)cn1` [Example 2, 1,5-anhydro-2,3-dideoxy-3-(((4-fluoro-7-(4-(1-methyl-1H-pyrazol-4-yl)benzyl)-2,3-dihydro-1-benzofuran-5-yl)carbonyl)amino)-L-threo-pentitol] was run?
Answer: The EC50 was 4.9 nM.

Question: How did the EC50 turn out when `COCCNC(=O)c1ccc(Cc2cc(C(=O)N[C@H]3CCOC[C@@H]3O)c(OC)c3c2CCC3)cc1F` [Example 58, 1,5-anhydro-2,3-dideoxy-3-(((7-(3-fluoro-4-((2-methoxyethyl)carbamoyl)benzyl)-4-methoxy-2,3-dihydro-1H-inden-5-yl)carbonyl)amino)-L-threo-pentitol] was run?
Answer: Its EC50 is 9.4 nM.

Question: With `COc1c(C(=O)N[C@H]2CCOC[C@@H]2O)cc(Cc2ccc(C(=O)NC[C@H]3CCCO3)c(F)c2)c2c1CCO2` [Example 43, 1,5-anhydro-2,3-dideoxy-3-(((7-(3-fluoro-4-(((2R)-tetrahydrofuran-2-ylmethyl)carbamoyl)benzyl)-4-methoxy-2,3-dihydro-1-benzofuran-5-yl)carbonyl)amino)-L-threo-pentitol] as the compound, how does the EC50 read?
Answer: The EC50 was 96 nM.

Question: Which EC50 does the source give for `COc1c(C(=O)N[C@H]2CCOC[C@@H]2O)cc(Cc2ccc(C(=O)NC[C@H]3CCCO3)c(F)c2)c2c1CCC2` [Example 70, 1,5-anhydro-2,3-dideoxy-3-(((7-(3-fluoro-4-(((2R)-tetrahydrofuran-2-ylmethyl)carbamoyl)benzyl)-4-methoxy-2,3-dihydro-1H-inden-5-yl)carbonyl)amino)-L-threo-pentitol] here?
Answer: Its EC50 is 32 nM.

Question: With `Cn1cc(-c2ccc(Cc3cc(C(=O)N[C@H]4CCOC[C@@H]4O)c(O)c4c3OCC4)cc2)nn1` [Example 20, 1,5-anhydro-2,3-dideoxy-3-(((4-hydroxy-7-(4-(1-methyl-1H-1,2,3-triazol-4-yl)benzyl)-2,3-dihydro-1-benzofuran-5-yl)carbonyl)amino)-L-threo-pentitol] as the compound, how does the EC50 read?
Answer: Its EC50 is 43 nM.

Question: `Cn1cc(-c2ccc(Cc3cc(C(=O)N[C@H]4CCOC[C@@H]4O)c(F)c4c3OCC4)cc2)nn1` [Example 1, 1,5-anhydro-2,3-dideoxy-3-(((4-fluoro-7-(4-(1-methyl-1H-1,2,3-triazol-4-yl)benzyl)-2,3-dihydro-1-benzofuran-5-yl)carbonyl)amino)-L-threo-pentitol] was tested. Which EC50 did it give?
Answer: Its EC50 is 3.1 nM.

From patent US12162864B2, “Condensed-cyclic compound” (Takeda Pharmaceutical Company Limited, priority 2018, dated 2024)
